According to US4085114A, “1,2-Benzoisoxazole derivatives and the production thereof” (Shionogi & Co., Ltd., priority 1975, dated 1978):
Values after ≈ are worked out from the molar mass of the structure shown.

Legend:
isolated trachea = test: β-Blocking activities in the isolated trachea (inhibition of isoproterenol-induced relaxation of tracheal chain); format: cell-based, Guinea-pigs; settings: Cavia porcellus, read-out: fifty percent inhibitory concentration on the relaxation of tracheal chain by isoproterenol (IC50), 2. Trachea
From the text: (§1) Guinea-pigs of either sex, weighing between 400 - 700 g each, were killed by a sharp blow on the head. Their atria and trachea were quickly excised and freed of excess tissues.

in vivo = settings: mouse, iv, female DS mice
isolated atria = test: β-Blocking activities in the isolated atria (inhibition of positive inotropic effect of isoproterenol); format: cell-based, Guinea-pigs; settings: Cavia porcellus, read-out: fifty percent inhibitory concentration on the positive inotropic effect of isoproterenol (IC50), 1. Atria
Method: as §1
1. β-Blocking activities in the isolated atria:
The isolated atria were mounted in a 30 ml organ bath filled with Krebs-Ringer-bicarbonate solution, which was constantly bubbled with a gas mixture of 95% oxygen and 5% carbon dioxide at 30° C. Spontaneous contractions of the atria were isometrically recorded on the polygraph (RM-150, Nihon Kohden Kogyo) by mean of a F-D pick-up (N. K. K.) and the number of contractions in one minute was recorded on the home-made pulse counter triggered by the atrial contractions.

SMILES | IC50 (isolated trachea) [ng/mL] | LD50 (in vivo) [mg/kg] | IC50 (isolated atria) [ng/mL]
Cc1noc2cccc(OCC(O)CNC(C)(C)C)c12 (centres unmarked) [3-methyl-4-(2-hydroxy-3-tert-butylaminopropoxy)-1,2-benzisoxazole] | 1.1 (≈ 0.00395 µM) | 41.8 | 7.9 (≈ 0.0284 µM)
Cc1noc2cccc(OCC(O)CNC(C)C)c12 (centres unmarked) [3-methyl-4-(2-hydroxy-3-isopropylaminopropoxy)-1,2-benzisoxazole] | – | 45 | 25 (≈ 0.0946 µM)
